# Molecular target: T1, hT1R1 E301A (Homo sapiens, UniProt Q7RTX1, E301A)
# T1 construct: expressed in transfected cells; host or cells: HEK293, transient transfection
# T1 sequence (Q7RTX1 21-841 E301A): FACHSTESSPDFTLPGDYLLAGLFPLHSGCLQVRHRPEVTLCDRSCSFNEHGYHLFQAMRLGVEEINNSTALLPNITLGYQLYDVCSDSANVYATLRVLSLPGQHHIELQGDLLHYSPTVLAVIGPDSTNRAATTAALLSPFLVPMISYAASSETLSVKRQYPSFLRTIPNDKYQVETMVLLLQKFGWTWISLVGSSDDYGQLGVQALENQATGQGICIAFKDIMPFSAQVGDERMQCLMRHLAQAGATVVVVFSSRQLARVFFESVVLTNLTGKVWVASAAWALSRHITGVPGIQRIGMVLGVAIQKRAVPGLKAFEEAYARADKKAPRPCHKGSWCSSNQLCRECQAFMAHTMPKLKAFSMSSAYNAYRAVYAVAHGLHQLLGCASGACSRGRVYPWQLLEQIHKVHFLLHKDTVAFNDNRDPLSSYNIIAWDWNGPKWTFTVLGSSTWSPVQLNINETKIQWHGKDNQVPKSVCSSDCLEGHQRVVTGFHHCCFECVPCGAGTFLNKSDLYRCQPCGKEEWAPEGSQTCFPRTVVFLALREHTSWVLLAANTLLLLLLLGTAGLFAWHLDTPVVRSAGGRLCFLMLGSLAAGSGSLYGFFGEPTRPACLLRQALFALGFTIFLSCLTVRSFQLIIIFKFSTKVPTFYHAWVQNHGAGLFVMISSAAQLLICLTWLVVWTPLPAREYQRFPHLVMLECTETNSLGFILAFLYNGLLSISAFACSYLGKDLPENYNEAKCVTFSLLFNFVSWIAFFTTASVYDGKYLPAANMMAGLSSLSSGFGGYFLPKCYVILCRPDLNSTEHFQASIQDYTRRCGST
# T1 sequence (Q923K1 21-858 partner): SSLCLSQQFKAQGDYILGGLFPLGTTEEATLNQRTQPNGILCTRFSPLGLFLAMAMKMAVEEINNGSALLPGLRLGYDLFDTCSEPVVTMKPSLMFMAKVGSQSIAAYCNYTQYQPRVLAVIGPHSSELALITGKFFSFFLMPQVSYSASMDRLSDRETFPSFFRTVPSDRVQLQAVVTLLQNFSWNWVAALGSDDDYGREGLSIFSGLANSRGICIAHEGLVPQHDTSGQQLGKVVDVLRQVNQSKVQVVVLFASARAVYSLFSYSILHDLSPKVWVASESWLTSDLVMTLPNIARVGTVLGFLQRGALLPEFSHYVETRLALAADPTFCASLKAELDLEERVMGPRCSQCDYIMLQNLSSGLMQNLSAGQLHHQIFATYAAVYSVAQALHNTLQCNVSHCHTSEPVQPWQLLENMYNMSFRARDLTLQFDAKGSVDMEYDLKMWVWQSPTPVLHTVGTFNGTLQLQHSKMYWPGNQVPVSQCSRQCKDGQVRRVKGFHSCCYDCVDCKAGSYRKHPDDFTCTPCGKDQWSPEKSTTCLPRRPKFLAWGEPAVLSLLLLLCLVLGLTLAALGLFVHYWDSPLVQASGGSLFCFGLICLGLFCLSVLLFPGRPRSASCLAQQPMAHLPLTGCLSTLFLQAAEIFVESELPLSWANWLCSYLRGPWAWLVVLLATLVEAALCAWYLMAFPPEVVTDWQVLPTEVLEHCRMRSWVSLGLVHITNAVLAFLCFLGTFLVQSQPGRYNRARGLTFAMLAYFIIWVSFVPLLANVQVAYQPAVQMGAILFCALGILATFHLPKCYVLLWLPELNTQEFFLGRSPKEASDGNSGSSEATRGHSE
# Assay: Mutagenesis study, hT1R1 mutant E301A
# Format: cell-based
# Details: E301 mutant, FIG. 11
# Description: In order to further define the interaction sites of umami stimuli, we performed site-directed mutagenesis on human T1R1 VFT. The mutagenesis was done using the routine PCR-based method. […] were transiently transfected into HEK293 cell together with the rat T1R3 wild type cDNA, and the transfected cells were characterized using an automated FLIPR machine or a calcium imaging system as described in our previous patent applications.
smiles,measurement,value
"N[C@@H](CCC(=O)O)C(=O)O [L-Glu, L-glutamate]",activity against L-Glu,significant reduced activity
